Measured values published in PubChem BioAssay AID256 (DTP/NCI, 2004).
Values joined by “and” are separate entries in the source; they are usually repeats but may differ in a detail not shown here. Equal entries are not always repeated. Inconclusive results and toxic doses are left out. How the source made its calls: active means survival T/C of 150% or more; inactive means T/C below 125% in these data.

System: CD2F1 mice, L1210 leukemia ip, survival T/C
Experiment: NCI In Vivo Anticancer Drug Screen. Data for tumor model L1210 Leukemia (intraperitoneal) in CD2F1 (CDF1) mice
Conditions: endpoint: mean survival time, higher = longer survival
In short: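 Activity against a transplanted murine tumor was judged by comparing the compound group with a vehicle group. The outcome in the treated animals was divided by that in the controls.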

Measured: T/C

CC(=O)OCC1OC(n2cc(CBr)nn2)C(OC(C)=O)C(OC(C)=O)C1OC(C)=O (stereo unspecified)
inactive: dose: 3.12 mg/kg/injection, schedule: Q01DX009 (ip), vehicle: saline with Tween-80 94 % of control and 96 % of control | dose: 6.25 mg/kg/injection, schedule: Q01DX009 (ip), vehicle: saline with Tween-80 98 % of control and 102 % of control | dose: 6.25 mg/kg/injection, schedule: Q01DX009 (ip), vehicle: suspension in saline 101 % of control | dose: 6.25 mg/kg/injection, schedule: Q04DX003 (ip), vehicle: suspension in saline 100 % of control | dose: 7.5 mg/kg/injection, schedule: Q01DX009 (ip), vehicle: saline 98 % of control | dose: 12.5 mg/kg/injection, schedule: Q01DX009 (ip), vehicle: saline with Tween-80 94 % of control and 104 % of control | dose: 12.5 mg/kg/injection, schedule: Q01DX009 (ip), vehicle: suspension in saline 102 % of control | dose: 12.5 mg/kg/injection, schedule: Q04DX003 (ip), vehicle: suspension in saline 107 % of control | dose: 15.0 mg/kg/injection, schedule: Q01DX009 (ip), vehicle: saline 100 % of control | dose: 25.0 mg/kg/injection, schedule: Q01DX009 (ip), vehicle: saline with Tween-80 102 % of control and 108 % of control | dose: 25.0 mg/kg/injection, schedule: Q01DX009 (ip), vehicle: suspension in saline 101 % of control | dose: 25.0 mg/kg/injection, schedule: Q04DX003 (ip), vehicle: suspension in saline 100 % of control | dose: 30.0 mg/kg/injection, schedule: Q01DX009 (ip), vehicle: saline 98 % of control | dose: 50.0 mg/kg/injection, schedule: Q01DX009 (ip), vehicle: saline with Tween-80 95 % of control and 102 % of control | dose: 50.0 mg/kg/injection, schedule: Q01DX009 (ip), vehicle: suspension in saline 96 % of control | dose: 50.0 mg/kg/injection, schedule: Q04DX003 (ip), vehicle: suspension in saline 103 % of control | dose: 60.0 mg/kg/injection, schedule: Q01DX009 (ip), vehicle: saline 102 % of control | dose: 100.0 mg/kg/injection, schedule: Q01DX009 (ip), vehicle: saline with Tween-80 102 % of control

CS(=O)(=O)OCC(=O)C(=O)COS(C)(=O)=O
inactive: dose: 25.0 mg/kg/injection, schedule: Q01DX001 (ip), vehicle: saline 91 % of control | dose: 50.0 mg/kg/injection, schedule: Q01DX001 (ip), vehicle: saline 94 % of control | dose: 100.0 mg/kg/injection, schedule: Q01DX001 (ip), vehicle: saline 96 % of control and 103 % of control

O=C(CC(c1ccccc1)C(C(=O)O)C(=O)O)c1ccccc1 (stereo unspecified)
inactive: dose: 100.0 mg/kg/injection, schedule: Q04DX002 (ip), vehicle: other 97 % of control | dose: 200.0 mg/kg/injection, schedule: Q04DX002 (ip), vehicle: other 101 % of control | dose: 400.0 mg/kg/injection, schedule: Q04DX002 (ip), vehicle: other 104 % of control

O=C(Nc1cccc(Cl)c1)C(c1ccccc1)c1ccccc1
inactive: dose: 100.0 mg/kg/injection, schedule: Q04DX002 (ip), vehicle: saline with Tween-80 95 % of control | dose: 200.0 mg/kg/injection, schedule: Q04DX002 (ip), vehicle: saline with Tween-80 87 % of control | dose: 400.0 mg/kg/injection, schedule: Q04DX002 (ip), vehicle: saline with Tween-80 91 % of control

CN(C)Cc1[c-]c(CN(C)C)ccc1.[Br][Pt]
inactive: dose: 3.12 mg/kg/injection, schedule: Q04DX003 (ip), vehicle: saline 96 % of control | dose: 6.25 mg/kg/injection, schedule: Q04DX003 (ip), vehicle: saline 97 % of control | dose: 12.5 mg/kg/injection, schedule: Q04DX003 (ip), vehicle: saline 97 % of control | dose: 25.0 mg/kg/injection, schedule: Q04DX003 (ip), vehicle: saline 108 % of control | dose: 50.0 mg/kg/injection, schedule: Q04DX003 (ip), vehicle: saline 97 % of control | dose: 100.0 mg/kg/injection, schedule: Q04DX003 (ip), vehicle: saline 105 % of control | dose: 200.0 mg/kg/injection, schedule: Q04DX003 (ip), vehicle: saline 100 % of control

CCCCOC(=O)CCC(NC(=O)c1ccc(N(C)Cc2cnc3nc(N)nc(N)c3n2)cc1)C(=O)OCCCC (stereo unspecified)
inactive: dose: 0.09 mg/kg/injection, schedule: Q01DX009 (ip), vehicle: distilled water + Tween-80 108 % of control | dose: 0.19 mg/kg/injection, schedule: Q01DX009 (ip), vehicle: distilled water + Tween-80 113 % of control and 91 % of control | dose: 0.75 mg/kg/injection, schedule: Q01DX009 (ip), vehicle: distilled water + Tween-80 108 % of control | dose: 1.5 mg/kg/injection, schedule: Q01DX009 (ip), vehicle: distilled water + Tween-80 89 % of control

NC(CSS(=O)(=O)O)=NCc1cccs1
inactive: dose: 25.0 mg/kg/injection, schedule: Q04DX002 (ip), vehicle: saline with Tween-80 95 % of control | dose: 50.0 mg/kg/injection, schedule: Q04DX002 (ip), vehicle: saline with Tween-80 115 % of control

C[n+]1ccc2c(Br)cccc2c1
inactive: dose: 75.0 mg/kg/injection, schedule: Q01DX001 (ip), vehicle: saline 101 % of control
